In brackets after ≈: the same amount, converted by molar mass. Structures can show the parent of a compound that is named as a salt. Where two headings read alike, the source gives them in different places. Non-standard residues stand in square brackets, D forms with d. Residues, ends and D or L forms follow the SMILES beside them. *: point of attachment. Phe(4-F) = N[C@@H](Cc1ccc(F)cc1)C(=O)O; Octanoyl = CCCCCCCC(=O)*; Piperidide = C1CCN(*)CC1; Bn = c1ccc(C*)cc1
Columns and labels:
[1] = tested on: H. influenzae (Strain 109); assay: H. influenzae Inhibition Assay (broth microdilution MIC), Strain 109; type: cell-based; settings: for MIC: Haemophilus influenzae
Protocol: (§1) An in vitro assay may be conducted by determining the minimum inhibitory concentration (MIC) of the small molecules to Gram negative bacteria, such as H. influenza. H. influenzae MICs are determined using CLSI recommended broth microdilution methodology (M7-A7). Test agent powders are dissolved in DMSO, serial dilutions are also made in DMSO and 1:100 dilutions of each are then prepared in Haemophilus Test media (HTM). 100 μL of each final dilution are transferred to appropriate wells of a 96 well microtiter plate. The test organism is suspended in saline or Mueller Hinton broth to an organism density equivalent to a 0.5 McFarland Standard. 300 μL of the H. influenzae suspension is transferred to 11 mLs of HTM and 10 μL of this suspension is transferred to each well of the microtiter plate. […] Colony counts are determined for each inoculum and expected range of final organism concentration is 3-7×10^5 CFU/mL. One of the recommended H. influenzae quality control strains (ATCC 49247 or 49766) is also tested on each testing day.
as §1, with “H.” for “An in vitro assay may be conducted by determining the minimum inhibitory concentration (MIC) of the small molecules to Gram negative bacteria, such as H. influenza. H.”
(§2) Pyrrhocoricin was used as a control. MIC is defined as the lowest concentration of an anti-bacterial agent that will inhibit the visible growth of a microorganism after overnight incubation.

[2] = tested on: H. influenzae (Strain 110); assay: H. influenzae Inhibition Assay (broth microdilution MIC), Strain 110; type: cell-based; settings: for MIC: Haemophilus influenzae
Protocol: as §1
as §1, with “H.” for “An in vitro assay may be conducted by determining the minimum inhibitory concentration (MIC) of the small molecules to Gram negative bacteria, such as H. influenza. H.”
as §2

[3] = biological target: DnaK (Escherichia coli, UniProt P0A6Y8); assay: DnaK Inhibition Assay (DnaK induced refolding of denatured firefly luciferase); type: biochemical, E. coli; settings: DnaK 200 nM, DnaJ 100 nM, GrpE 400 nM
DnaK, sequence (P0A6Y8 2-638): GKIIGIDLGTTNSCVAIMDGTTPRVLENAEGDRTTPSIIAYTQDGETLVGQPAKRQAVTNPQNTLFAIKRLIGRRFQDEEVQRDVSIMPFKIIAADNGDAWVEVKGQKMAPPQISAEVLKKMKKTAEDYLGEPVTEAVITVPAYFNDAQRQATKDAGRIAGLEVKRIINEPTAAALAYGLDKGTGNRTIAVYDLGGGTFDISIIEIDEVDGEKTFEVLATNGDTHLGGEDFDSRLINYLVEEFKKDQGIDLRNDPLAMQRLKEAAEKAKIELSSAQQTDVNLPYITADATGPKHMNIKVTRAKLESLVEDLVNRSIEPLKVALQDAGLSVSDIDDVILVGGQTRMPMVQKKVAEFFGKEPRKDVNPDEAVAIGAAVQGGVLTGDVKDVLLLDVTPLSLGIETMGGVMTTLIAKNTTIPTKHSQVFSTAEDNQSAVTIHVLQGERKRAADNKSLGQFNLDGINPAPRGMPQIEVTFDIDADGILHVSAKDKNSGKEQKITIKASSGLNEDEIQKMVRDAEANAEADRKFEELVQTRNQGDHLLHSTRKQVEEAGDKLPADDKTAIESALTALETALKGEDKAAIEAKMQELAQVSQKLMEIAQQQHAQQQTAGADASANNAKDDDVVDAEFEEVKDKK
Protocol: Inhibition of the bacterial DnaK chaperone system may be evaluated by inhibition of the DnaK induced refolding of denatured firefly luciferase. More specifically, firefly luciferase is denatured by treatment with 8N guanidium hydrochloride at room temperature for 30 mins and then 5° C. for 1 h. After dilution into cold MOPS buffer augmented with ATP (2.5 mM) and DTT (12.5 mM) and standing for a further hour, the denatured luciferase is refolded by addition to a mixture of chaperone proteins in MOPS buffer, resulting in a reaction mixture containing denatured luciferase (24 nM), DnaK (200 nM), DnaJ (100 nM) and GrpE (400 nM). The extent of refolding is determined by addition of a luciferase substrate and measurement of the emitted chemoluminescence. In this format the substrate is the commercially available luciferase “Steady-Glo” reagent from Promega, Inc. Inhibition of DnaK induced refolding is determined by premixing the chaperone proteins with the test agent at concentrations of test agent ranging from 1-100 μg/mL. The extent of refolding is compared to that with no test reagent, and the IC50 is estimated by fitting the data to a standard sigmoidal dose-response curve.
Inhibition of the bacterial DnaK chaperone system was evaluated by inhibition of the DnaK induced refolding of denatured firefly luciferase. Firefly luciferase was denatured by treatment with 8N guanidium hydrochloride at room temperature for 30 mins and then 5° C. for 1 h. After dilution into cold MOPS buffer augmented with ATP (2.5 mM) and DTT (12.5 mM) and standing for a further hour, the denatured luciferase was refolded by addition to a mixture of chaperone proteins in MOPS buffer, resulting in a reaction mixture containing denatured luciferase (24 nM), DnaK (200 nM), DnaJ (100 nM) and GrpE (400 nM). The extent of refolding was determined by addition of a luciferase substrate and measurement of the emitted chemoluminescence. In this format the substrate is the commercially available luciferase “Steady-Glo” reagent from Promega, Inc. Inhibition of DnaK induced refolding was determined by premixing the chaperone proteins with the test agent at concentrations of test agent ranging from 1-100 μg/mL. The extent of refolding was compared to that with no test reagent, and the IC50 was estimated by fitting the data to a standard sigmoidal dose-response curve.
IC50 is defined as the concentration in μM at which 50% inhibition of DnaK induced refolding of denatured firefly luciferase occurs.

[4] = tested on: E. coli (ATCC 25922); assay: Antibacterial activity against E. coli (MIC); type: cell-based; settings: Escherichia coli, ATCC25922
[5] = Strain 109, HTM, 35° C., 20-24 hours, read-out: H. influenzae (Strain 109) MIC
[6] = Strain 110, HTM, 35° C., 20-24 hours, read-out: H. influenzae (Strain 110) MIC
[7] = read-out: DnaK IC50(μg/ml) (converted)

| Structure (SMILES) | MIC [1, 5] [µg/mL] | inhibition of H. influenzae strain 109 compared with the control pyrrhocoricin [1] | MIC [2, 6] [µg/mL] | IC50 ([3]; read-out: DnaK IC50) [µM] | IC50 [3, 7] [µM] | MIC [4] [µg/mL] | MIC ([1]; read-out: H. influenzae (Strain 109) MIC (μg/ml)) [µg/mL] | MIC ([2]; read-out: H. influenzae (Strain 110) MIC (μg/ml)) [µg/mL] | inhibition of H. influenzae strain 110 compared with the control pyrrhocoricin ([2]; strain 110) |
| --- | --- | --- | --- | --- | --- | --- | --- | --- | --- |
| CCC(C)[C@H](NC(C)=O)C(=O)N[C@@H](CCCCNC(=O)OCc1ccccc1)C(=O)N1CCC[C@H]1C(=O)O (some centres unmarked) [Structure 22, Ac-Ile-Lys(Cbz)-Pro-OH] | 2 (≈ 3.75 µM) | lower concentration than the control | > 128 | 14 | 50.7 |  |  |  |  |
| CC(=O)N[C@@H](Cc1ccc(F)cc1)C(=O)N[C@@H](CC(C)C)C(=O)N1CCC[C@H]1C(=O)O [Structure 11] (Ac-[Phe(4-F)]-Leu-Pro-OH) | 4 (≈ 9.18 µM) | lower concentration than the control | > 128 | 69 | 363 |  |  |  |  |
| COC(=O)[C@@H]1CCCN1C(=O)[C@H](CC(C)C)NC(=O)[C@H](Cc1ccc(OCc2ccccc2)cc1)NC(C)=O [Structure 2, Ac-Tyr(Bzl)-Leu-Pro-OMe] (Ac-Tyr(Bn)-Leu-Pro-OMe) | 32 (≈ 59.5 µM) | lower concentration than the control | > 128 | 63 | 219 |  |  |  |  |
| CCCCCCCC(=O)N[C@@H](Cc1ccc(OCc2ccccc2)cc1)C(=O)N[C@@H](CC(C)C)C(=O)N1CCC[C@H]1C(=O)N[C@H](CCCNC(=N)N)C(=O)N1CCCCC1 [Structure 28, Octanoyl-Tyr(Bzl)-Leu-Pro-Arg-N(CH2)5 trifluoroacetate] (Octanoyl-Y(Bn)LP[dR]-Piperidide) |  |  |  | 13 | 14.4 | 32 |  |  |  |
| COC(=O)[C@@H]1CCCN1C(=O)[C@H](CC(C)C)NC(=O)[C@H](Cc1ccc(F)cc1)NC(C)=O [Structure 10, Ac(4-F)Phe-Leu-Pro-OMe] (Ac-[Phe(4-F)]-Leu-Pro-OMe) | 32 (≈ 71.2 µM) | lower concentration than the control | > 128 | 26 | 127 |  |  |  |  |
| CCCCCCCC(=O)N[C@H](Cc1ccc(OCc2ccccc2)cc1)C(=O)N[C@@H](CC(C)C)C(=O)N1CCC[C@H]1C(=O)N[C@H](CCCNC(=N)N)C(=O)OC [Structure 25, Octanoyl-(D)-Tyr(Bzl)-Leu-Pro-Arg-OMe trifluoroacetate] (Octanoyl-[dY](Bn)LP[dR]-OMe) |  |  |  | 20 | 23.1 | 128 |  |  |  |
| CCCCCCCC(=O)N[C@@H](Cc1ccc(OCc2ccccc2)cc1)C(=O)N[C@@H](CC(C)C)C(=O)N1CCC[C@H]1C(=O)N1CCCC(CNC(=N)N)C1 (stereo partly drawn) [Structure 33, Octanoyl-Tyr(Bzl)-Leu-Pro-(3-guanidinomethylpiperidine) trifluoroacetate] |  |  |  | 23 | 26.8 | 16 |  |  |  |
| CCCCCCCC(=O)N[C@@H](Cc1ccc(OCc2ccccc2)cc1)C(=O)N[C@@H](CC(C)C)C(=O)N1CCC[C@H]1C(=O)N[C@H](CCCNC(=N)N)C(=O)OC [Structure 26, Octanoyl-Tyr(Bzl)-Leu-Pro-Arg-OMe trifluoroacetate] (Octanoyl-Y(Bn)LP[dR]-OMe) |  |  |  | 30 | 34.7 | 32 |  |  |  |
| CC(=O)N[C@@H](Cc1ccc(OCc2ccccc2)cc1)C(=O)N[C@@H](CC(C)C)C(=O)N1CCC[C@H]1C(=O)O [Structure 3, Ac-Tyr(Bzl)-Leu-Pro-OH] (Ac-Tyr(Bn)-Leu-Pro-OH) |  | surpasses that of pyrrhocoricin |  | 110 | 399 |  | 32 (≈ 61.1 µM) | 64 (≈ 122 µM) | surpasses that of pyrrhocoricin |
| CCCCCCCC(=O)N[C@@H](Cc1ccc(OCc2ccccc2)cc1)C(=O)N[C@@H](CC(C)C)C(=O)N1CCC[C@H]1C(=O)NCCNC(=N)N [Structure 30, Octanoyl-Tyr(Bzl)-Leu-Pro-NH(CH2)2 NH—C(═NH)—NH2 trifluoroacetate] |  |  |  | 19 | 21.7 | 32 |  |  |  |
